Columns and labels:
histamine H3 receptor = histamine H3 receptor (Homo sapiens, UniProt Q9Y5N1); experiment: FLPPR assay, antagonistic activity at histamine H3 receptor; format: cell-based; conditions: for inhibition at 0.005 µM: 5 nM compound, read-out: % Inh-AVERAGE @ 5 nM; for inhibition at 0.05 µM: 50 nM compound, read-out: % Inh-AVERAGE @ 50 nM
Experimental: The FLPPR assay (NIH Assay Guidance Manual: HTS Assay Validation-Section 4.3. Analysis (Potency), htpps://www.ncbi.nlm.nih.gov/books/NBK83783) was performed using SUVN-G3031 as the positive control, and 13 target compounds were tested for the antagonistic activity target to histamine H3 receptor.

hERG channel = hERG channel (Homo sapiens, UniProt Q12809); experiment: in vitro
Text: In cardiomyocytes, inhibition of the delayed rectifier potassium current (IKr) channel protein encoded by the human Ether-a-go-go Related Gene (hERG) is the most importane mechanism by which drugs lead to prolongation of the QT interval. hERG is characterized by a specific molecular structure, which allows it to be inhibited by different structures, leading to severe arrhythmias. Statistically, 25-40% of lead compounds show varying degrees of hERG-related toxicity. early evaluation of the effects of compounds on hERG is crucial in the drug development process. The inhibition rate of compounds on hERG channels is examined by manual membrane clamp technique on HEK293 cell line whichi stably ecpressing hERG ion channels.

CCI model rats = experiment: Chronic constriction injury (CCI) neuropathic pain model, mechanical withdrawal threshold; format: in vivo; conditions: CCI SD rats; for Mechanical pain (withdrawal) threshold vs model group: single dose, 0.5-6 h
Text: Exposing the sciatic nerve on male SD rats' (180-200 g) right hind leg, in the anterior segment where the sciatic nerve is about to bifurcate, use sterile chromic gut thread (No. 4, 0.15 mm in diameter) to ligate 4 loops loosely, with each loop 1-2 mm apart, and suture the muscle and skin to establish the chronic constriction injury (CCI) model. In the sham-operated group, only the sciatic nerve is exposed without ligation, and the muscle and skin are sutured. The mechanical withdrawal threshold is detected by electronic analgesia meter (IITC-2391) on the 7th day for 2 consecutive days.
The CCI model rats with stabilized mechanical withdrawal thresholds were randomly divided into three groups, named model group (model), pregabalin group (Pre, 30 mg/kg), BIOS-A-3 compound group (1 mg/kg), and were administered at 1 mL/100 g by gavage, and the same column of saline was gavaged in Sham and model group. The basic value was determined before drug administration, and the mechanical withdrawal thresholds were detected at 0.5 h, 1 h, 2 h, 4 h and 6 h after a single drug administration, and the p value was calculated by ANOVA with T-test.

[1] = Average inhibition rate (%) on hERG channel
[2] = Inhibition rate on hERG channel

Sequence of histamine H3 receptor (Q9Y5N1 whole entry, species assumed): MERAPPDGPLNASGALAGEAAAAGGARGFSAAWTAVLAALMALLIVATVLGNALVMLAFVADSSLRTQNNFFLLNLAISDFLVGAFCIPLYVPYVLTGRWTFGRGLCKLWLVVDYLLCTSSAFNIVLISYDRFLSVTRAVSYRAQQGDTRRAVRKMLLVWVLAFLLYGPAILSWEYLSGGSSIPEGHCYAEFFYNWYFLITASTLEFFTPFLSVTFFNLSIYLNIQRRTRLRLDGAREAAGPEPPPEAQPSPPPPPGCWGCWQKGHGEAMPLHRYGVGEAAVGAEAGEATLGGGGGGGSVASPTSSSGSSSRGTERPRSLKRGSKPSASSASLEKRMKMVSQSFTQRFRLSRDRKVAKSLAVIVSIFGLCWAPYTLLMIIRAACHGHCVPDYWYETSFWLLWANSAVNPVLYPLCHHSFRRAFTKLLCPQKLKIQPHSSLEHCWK
Sequence of hERG channel (Q12809 whole entry): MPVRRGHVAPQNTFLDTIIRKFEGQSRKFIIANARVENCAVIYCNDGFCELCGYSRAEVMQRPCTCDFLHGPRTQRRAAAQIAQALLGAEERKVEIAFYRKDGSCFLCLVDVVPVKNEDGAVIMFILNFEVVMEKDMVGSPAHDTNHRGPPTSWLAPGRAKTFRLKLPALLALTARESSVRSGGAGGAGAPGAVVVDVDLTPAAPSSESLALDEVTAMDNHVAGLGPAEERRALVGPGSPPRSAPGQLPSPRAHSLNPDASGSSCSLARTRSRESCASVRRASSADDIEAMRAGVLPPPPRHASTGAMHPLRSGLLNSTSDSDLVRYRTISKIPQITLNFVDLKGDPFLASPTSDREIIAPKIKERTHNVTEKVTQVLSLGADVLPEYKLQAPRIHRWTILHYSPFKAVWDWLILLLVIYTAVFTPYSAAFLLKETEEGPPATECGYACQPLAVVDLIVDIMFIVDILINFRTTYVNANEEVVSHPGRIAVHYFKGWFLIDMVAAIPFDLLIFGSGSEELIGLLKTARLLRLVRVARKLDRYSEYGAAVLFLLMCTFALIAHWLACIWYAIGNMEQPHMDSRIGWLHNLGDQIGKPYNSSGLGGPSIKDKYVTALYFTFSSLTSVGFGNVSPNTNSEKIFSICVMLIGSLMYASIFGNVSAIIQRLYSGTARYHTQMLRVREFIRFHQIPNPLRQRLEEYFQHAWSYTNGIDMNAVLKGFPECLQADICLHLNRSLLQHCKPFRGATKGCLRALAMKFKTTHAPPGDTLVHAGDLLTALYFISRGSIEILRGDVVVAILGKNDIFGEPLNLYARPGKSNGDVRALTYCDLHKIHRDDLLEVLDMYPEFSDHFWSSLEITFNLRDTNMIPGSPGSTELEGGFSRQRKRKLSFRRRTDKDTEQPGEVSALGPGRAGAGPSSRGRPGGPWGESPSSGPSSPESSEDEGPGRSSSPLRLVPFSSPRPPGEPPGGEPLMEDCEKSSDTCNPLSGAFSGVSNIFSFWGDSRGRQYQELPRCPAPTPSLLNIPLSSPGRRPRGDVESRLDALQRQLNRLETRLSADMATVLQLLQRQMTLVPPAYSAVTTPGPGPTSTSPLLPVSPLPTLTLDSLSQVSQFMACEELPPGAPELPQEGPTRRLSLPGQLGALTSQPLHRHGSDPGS

| Structure (SMILES) | inhibition at 0.005 µM (histamine H3 receptor) | inhibition at 0.05 µM (histamine H3 receptor) | inhibition at 10 µM (hERG channel; [1]) | Mechanical pain (withdrawal) threshold vs model group (CCI model rats; 1 mg/kg by gavage) | Acting time compared with pregabalin (CCI model rats; 1 mg/kg vs pregabalin 30 mg/kg) | inhibition at 10 µM (hERG channel; [2]) | Mechanical pain (withdrawal) threshold vs model group (CCI model rats; 30 mg/kg by gavage) |
| --- | --- | --- | --- | --- | --- | --- | --- |
| O=C(Nc1ccc(OC2CCN(C3CCC3)CC2)cc1)NC1CCCC1 [BIOS-A-1, 1-(4-((1-cyclobutylpiperidin-4-yl)oxy)phenyl)-3-cyclopentylurea] | 77.4% | 99.7% | – | – | – | – | – |
| O=C(NCCN1CCOCC1)Nc1ccc(OC2CCN(C3CCC3)CC2)cc1 [BIOS-A-3, 1-(4-((1-cyclobutylpiperidin-4-yl)oxy)phenyl)-3-(2-morpholinoethyl)urea] | 95.6% | 100% | 1.56% | significantly increased the mechanical tingling threshold of CCI model rats | had a longer acting time | – | – |
| O=C(NCCN1CCCCC1)Nc1ccc(OC2CCN(C3CCC3)CC2)cc1 [BIOS-A-4, 1-(4-((1-cyclobutylpiperidin-4-yl)oxy)phenyl)-3-(2-(piperidin-1-yl)ethyl)urea] | 102% | 98.6% | 0.96% | – | – | – | – |
| O=C(NCCN1CCCC1)Nc1ccc(OC2CCN(C3CCC3)CC2)cc1 [BIOS-A-5, 1-(4-((1-cyclobutylpiperidin-4-yl)oxy)phenyl)-3-(2-(pyrrolidin-1-yl)ethyl)urea] | 101% | 99.7% | 2.64% | – | – | – | – |
| C[C@@H]1CCCN1CCNC(=O)Nc1ccc(OC2CCN(C3CCC3)CC2)cc1 [BIOS-A-6, (R)-1-(4-((1-cyclobutylpiperidin-4-yl)oxy)phenyl)-3-(2-(2-methylpyrrolidin-1-yl)ethyl)urea] | 81.3% | 101% | – | – | – | – | – |
| O=C(NCCN1CCC(F)(F)CC1)Nc1ccc(OC2CCN(C3CCC3)CC2)cc1 [BIOS-A-7, 1-(4-((1-cyclobutylpiperidin-4-yl)oxy)phenyl)-3-(2-(4,4-difluoropiperidin-1-yl)ethyl)urea] | 101% | 100% | – | – | – | – | – |
| O=C(NCCN1CCSCC1)Nc1ccc(OC2CCN(C3CCC3)CC2)cc1 [BIOS-A-8, 1-(4-((1-cyclobutylpiperidin-4-yl)oxy)phenyl)-3-(2-thiomorpholinoethyl)urea] | 100% | 100% | – | – | – | – | – |
| O=C(NCCN1CCC(O)CC1)Nc1ccc(OC2CCN(C3CCC3)CC2)cc1 [BIOS-A-9, 1-(4-((1-cyclobutylpiperidin-4-yl)oxy)phenyl)-3-(2-(4-hydroxypiperidin-1-yl)ethyl)urea] | 101% | 101% | – | – | – | – | – |
| CN1CCN(CCNC(=O)Nc2ccc(OC3CCN(C4CCC4)CC3)cc2)CC1 [BIOS-A-10, 1-(4-((1-cyclobutylpiperidin-4-yl)oxy)phenyl)-3-(2-(4-methylpiperazin-1-yl)ethyl)urea] | 99.7% | 101% | -2.92% | – | – | < 5% | – |
| CC(C)N1CCN(CCNC(=O)Nc2ccc(OC3CCN(C4CCC4)CC3)cc2)CC1 [BIOS-A-11, 1-(4-((1-cyclobutylpiperidin-4-yl)oxy)phenyl)-3-(2-(4-isopropylpiperazin-1-yl)ethyl)urea] | 100% | 100% | -1.22% | – | – | < 5% | – |
| CN1CCCN(CCNC(=O)Nc2ccc(OC3CCN(C4CCC4)CC3)cc2)CC1 [BIOS-A-13, 1-(4-((1-cyclobutylpiperidin-4-yl)oxy)phenyl)-3-(2-(4-methyl-1,4-diazepan-1-yl)ethyl)urea] | 101% | 101% | -0.54% | – | – | – | – |
| O=C(NCCN1CCNCC1)Nc1ccc(OC2CCN(C3CCC3)CC2)cc1 [BIOS-A-14, 1-(4-((1-cyclobutylpiperidin-4-yl)oxy)phenyl)-3-(2-(piperazin-1-yl)ethyl)urea] | 100% | 99.7% | -0.62% | – | – | – | – |
| O=C(NCCN1CCN(C2CCC2)CC1)Nc1ccc(OC2CCN(C3CCC3)CC2)cc1 [BIOS-A-15, 1-(2-(4-cyclobutylpiperazin-1-yl)ethyl)-3-(4-((1-cyclobutylpiperidin-4-yl)oxy)phenyl)urea] | 101% | 99.9% | -0.55% | – | – | – | – |
| CC(C)C[C@H](CN)CC(=O)O [Pregabalin, reference compound] | – | – | – | – | – | – | only increased the mechanical sting threshold of CCI rats at 0.5 h and 1 h after administration |

Reference: patent publication US20260048068A1, “PHENYLUREA DERIVATIVES AND THEIR PHARMACEUTICAL USES” (HANGZHOU BIO-SINCERITY PHARMA-TECH CO., LTD., priority 2022, published 2026)
